Source: the supplement of paper PMC4954754
± gives the uncertainty stated by the source.

Tests used:
Conditions in all cases: 18 h
[1] = test system: HEK293T-Rex ERSE-FLuc; assay: EC50 for ERSE-FLuc reporter activation
Method: (§1)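 Dose-response of hit compounds in HEK293T-Rex cells stably expressing ERSE-FLuc or XBP1-RLuc reporters, 18 hr treatment, 1536-well; luminescence normalised to 500 nM thapsigargin (100%) and DMSO (0%), fitted to give EC50 (M) and maximal activation; '>' marks EC50 above the top tested dose (~17 µM).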

[2] = test system: HEK293T-Rex ERSE-FLuc; assay: maximal ERSE-FLuc activation from dose-response fit, relative to thapsigargin (% of thapsigargin); higher = stronger activation
Method: as §1

[3] = test system: HEK293T-Rex XBP1-RLuc; assay: EC50 for XBP1-RLuc reporter activation
Method: as §1

[4] = test system: HEK293T-Rex XBP1-RLuc; assay: maximal XBP1-RLuc activation from dose-response fit, relative to thapsigargin (% of thapsigargin); higher = stronger activation
Method: as §1

Compound | EC50 for ERSE-FLuc reporter activation [1] [µM] | maximal ERSE-FLuc activation [2] | EC50 for XBP1-RLuc reporter activation [3] [µM] | maximal XBP1-RLuc activation [4]
CC(=Nc1ccc(O)cc1)c1sc2ccccc2c1O | > 19.6 | 19.8 ± 4.8 | > 19.6 | 31.2 ± 4.8
COc1ccccc1OCC(=O)Nc1cc(C)ccc1O | > 16.9 | 45.8 ± 4.2 | > 16.9 | 22.9 ± 1.1
C=CCNC(=O)c1sc2nc3cc(C)c(C)cc3cc2c1N | > 16.9 | 8.68 ± 2 | > 16.9 | 2.32 ± 1.2
O=c1[nH]c(COc2ccccc2)nc2sc3c(c12)CCCC3 | > 16.3 | 23.3 ± 2.4 | > 16.3 | 6.01 ± 1.1
O=C(CCCN1CCC2(CC1)C(=O)NCN2c1ccccc1)c1ccc(F)cc1 | 7.34 | 157 ± 16 | 3.23 | 186 ± 12
COc1ccc2c(Cl)c(C(=O)Nc3ccccc3C(N)=O)sc2c1 | > 16.9 | 21.3 ± 1.3 | > 16.9 | 6.81 ± 1.3
Cc1ccc(Nc2nc(N)c3ccccc3n2)cc1Cl | 10 | 111 ± 7.9 | > 16.9 | 48.1 ± 5.2
N#Cc1c(NC(=O)c2cccc(F)c2)sc2c1CCC2 | > 16.5 | 19.5 ± 3.1 | > 16.5 | 2.22 ± 1.6
COc1ccccc1/C=C/C(=O)Nc1ccc(Cl)cn1 | > 15.1 | 27.3 ± 3.7 | > 15.1 | 8.83 ± 0.86
O=c1[nH]c(/C=C2\C=Nc3ccccc32)c(O)n1-c1ccc(Cl)cc1 | > 16.9 | 44.1 ± 7.8 | 4.87 | 89 ± 4.6
N#Cc1c(NC(=O)c2ccc3c(c2)OCO3)sc2c1CCCC2 | > 16.9 | 18.3 ± 3.2 | > 16.9 | 1.79 ± 3.7
CCCCNC(=O)c1cc(-c2ccc(F)cc2)on1 | 12.2 | 68.7 ± 8.5 | > 16.9 | 9.22 ± 4.7
CC(Oc1ccc(Cl)cc1Cl)C(=O)NNC(=O)c1ccc(O)c(O)c1 (configuration not stated) | > 14.9 | 50 ± 8.3 | > 14.9 | 45.2 ± 5.7
COc1ccc(-c2csc(-c3ccc(O)cc3)n2)cc1 | > 19.1 | 30.9 ± 6.5 | > 19.1 | 33.9 ± 1.9
O=C(N/N=C/c1cccc2ccccc12)c1ccc2c(c1)OCO2 | > 16.9 | 25.3 ± 5.6 | > 16.9 | 0.725 ± 0.6
Oc1ccc(-c2cn3ccccc3n2)cc1O | 18.4 | 51.7 ± 5.5 | > 22.5 | 38.7 ± 3.2
CNc1ccc2oc(C[C@H]3O[C@@]4(CC[C@H]3C)O[C@H]([C@H](C)C(=O)c3ccc[nH]3)[C@H](C)C[C@H]4C)nc2c1C(=O)O | 2.39 | 56.9 ± 16 | 4.49 | 91.4 ± 5.9

Compound | EC50 for ERSE-FLuc reporter activation [1] [µM] | maximal ERSE-FLuc activation [2] | EC50 for XBP1-RLuc reporter activation [3] [µM] | maximal XBP1-RLuc activation [4]
Nc1ccccc1NC(=O)c1ccc(C(=O)Nc2ccccc2N)cc1 | 7.17 | 65.8 ± 3.4 | > 9.59 | 16.1 ± 6.4
N#C/C(=C\c1ccc(O)c(O)c1)C(=O)Nc1ccccc1 | 24.6 | 52.2 ± 13 | > 33.8 | 21.5 ± 0.57
O=C1N/C(=C\c2ccc(O)cc2)C(O)=C1C=NCc1ccccc1 | > 16.9 | 40.4 ± 7.5 | 2.96 | 74.2 ± 4.9
O=C1N/C(=C/c2ccc(O)cc2)C(=O)N1c1cccc(Cl)c1 | 3.19 | 85.8 ± 20 | 3.04 | 100 ± 3
CN1C(=O)/C(=C\c2ccc(O)c(O)c2)SC1=S | > 16.9 | 28 ± 15 | > 16.9 | 40.5 ± 3.6
CS(=O)(=O)c1ncc(Cl)c(C(=O)C(C#N)c2nc3ccccc3s2)n1 (configuration not stated) | 2.49 | 73.2 ± 8.2 | 3.99 | 266 ± 8.4
CCOc1ccc2nc(NC(=O)c3ccn(C)n3)sc2c1 | > 14.4 | 10.9 ± 2.4 | > 14.4 | 4.53 ± 2.8
O=C(NC1CCCC1)c1cc(-c2cccs2)on1 | 13.4 | 57.6 ± 6.2 | > 16.9 | 11.9 ± 3.2
O=C1N/C(=C/c2ccc(O)cc2)C(=O)N1c1ccccc1 | 3.42 | 110 ± 11 | 4.36 | 76 ± 3.7
O=C(N/N=C/c1ccc(Cl)cc1)c1n[nH]c2c1CCCC2 | > 16.9 | 21.7 ± 1.7 | > 16.9 | 6.88 ± 3.1
COc1ccccc1/C=N/Nc1nc(-c2ccccc2)cc(=O)[nH]1 | > 16.9 | 28.3 ± 0.49 | > 16.9 | 5.2 ± 9.3
COC(=O)c1c(NC(=O)CCl)sc(C(=O)Nc2cccc([N+](=O)[O-])c2)c1C | > 16.9 | 32.9 ± 4.5 | > 16.9 | 29.6 ± 2.9
CN(C)c1ccc(/C=C/C(=O)NC(=O)c2ccccc2OC(=O)c2ccccc2)cc1 | > 12.9 | 25 ± 1.2 | > 12.9 | 11.5 ± 1.4
N#Cc1c(NC(=O)c2cnccn2)sc2c1CCCC2 | > 17.9 | 18.9 ± 4.8 | > 17.9 | 4.67 ± 1.1
CN(C)c1ccc(/C=C(/C#N)C(=O)Nc2ccc(O)cc2)cc1 | > 16.9 | 29.9 ± 4.7 | > 16.9 | 31 ± 2.4
N#Cc1c(NC(=O)/C=C/c2ccco2)sc2c1CCCC2 | > 17 | 22.8 ± 6.6 | > 17 | 5.59 ± 3
